Laboratory results: patent publication US9926281B2 (priority 2014, dated 2018)
Like-named read-outs stand apart in the source and are kept apart here.

Key:
human TACE = human TACE (Homo sapiens (Human), UniProt P78536); details: read-out: TACE potency IC50
human MMP13 = human MMP13 (Homo sapiens (Human), UniProt P45452); details: read-out: hMMP-13 potency IC50
Protocol: Human MMP13 is preactivated by incubated the enzyme in the same buffer complemented with 1 mM freshly prepared p-Aminophenylmercuric acetate (AMPA) for 1 hour at 37° C.

rnADAMTS-5 (1-564-6H) = rnADAMTS-5 (1-564-6H) (Rattus norvegicus, UniProt Q6TY19); details: read-out: Rat ADAMTS-5 potency IC50
human ADAMTS-5 [1] = target: T1, human ADAMTS-5 (Homo sapiens (Human), UniProt Q9UNA0); details: read-out: hADAMTS-5 potency IC50
T1 sequence (Q9UNA0 262-930): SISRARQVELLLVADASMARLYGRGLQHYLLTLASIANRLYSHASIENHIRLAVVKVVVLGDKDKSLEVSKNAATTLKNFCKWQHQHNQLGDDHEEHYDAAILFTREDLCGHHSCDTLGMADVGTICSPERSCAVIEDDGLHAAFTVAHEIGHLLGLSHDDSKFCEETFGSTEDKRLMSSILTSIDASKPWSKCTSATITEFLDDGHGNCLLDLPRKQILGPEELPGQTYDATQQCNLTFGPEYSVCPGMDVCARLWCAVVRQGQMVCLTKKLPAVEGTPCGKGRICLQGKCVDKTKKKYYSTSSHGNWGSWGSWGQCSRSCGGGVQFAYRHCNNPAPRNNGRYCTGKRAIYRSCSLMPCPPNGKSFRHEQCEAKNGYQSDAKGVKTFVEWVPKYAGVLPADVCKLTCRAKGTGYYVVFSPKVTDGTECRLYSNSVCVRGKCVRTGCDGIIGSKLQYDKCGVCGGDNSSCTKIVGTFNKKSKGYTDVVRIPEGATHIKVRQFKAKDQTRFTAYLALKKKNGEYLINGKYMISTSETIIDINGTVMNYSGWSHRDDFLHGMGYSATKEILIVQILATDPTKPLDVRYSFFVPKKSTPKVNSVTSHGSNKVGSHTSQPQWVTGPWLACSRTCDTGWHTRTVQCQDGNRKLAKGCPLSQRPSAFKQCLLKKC

human ADAMTS-5 [2] = target: T1, human ADAMTS-5; details: read-out: hADAMTS-5 potency IC50; remark: listed apart in the source
Protocol: Finally, the fluorescence is read on the Envision (Perkin Elmer) after an incubation of 90 min at 37° C.

human TACE, sequence (P78536 whole entry, looked up, change not shown): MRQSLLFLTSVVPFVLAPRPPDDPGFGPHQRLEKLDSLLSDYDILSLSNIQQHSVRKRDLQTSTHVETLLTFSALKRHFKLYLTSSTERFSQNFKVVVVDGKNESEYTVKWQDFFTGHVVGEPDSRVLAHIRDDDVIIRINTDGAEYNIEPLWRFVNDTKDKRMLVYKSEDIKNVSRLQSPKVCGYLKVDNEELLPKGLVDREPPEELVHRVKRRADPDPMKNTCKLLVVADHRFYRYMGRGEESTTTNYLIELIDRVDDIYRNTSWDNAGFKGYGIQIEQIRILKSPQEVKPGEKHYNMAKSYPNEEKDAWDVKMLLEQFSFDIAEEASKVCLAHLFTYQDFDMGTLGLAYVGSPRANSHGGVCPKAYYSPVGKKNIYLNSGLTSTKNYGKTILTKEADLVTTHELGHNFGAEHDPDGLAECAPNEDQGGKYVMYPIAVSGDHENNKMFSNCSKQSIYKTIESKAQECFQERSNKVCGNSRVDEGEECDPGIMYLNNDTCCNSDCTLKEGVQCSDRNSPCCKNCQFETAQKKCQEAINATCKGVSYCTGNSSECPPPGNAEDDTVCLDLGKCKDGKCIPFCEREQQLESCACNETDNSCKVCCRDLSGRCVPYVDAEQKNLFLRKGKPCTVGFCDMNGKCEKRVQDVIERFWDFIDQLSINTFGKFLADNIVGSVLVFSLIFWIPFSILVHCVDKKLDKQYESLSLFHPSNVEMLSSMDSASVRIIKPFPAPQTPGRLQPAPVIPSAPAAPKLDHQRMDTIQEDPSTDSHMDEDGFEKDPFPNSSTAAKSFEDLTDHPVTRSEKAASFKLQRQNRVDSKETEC

## O=C1NC(=O)C(CCC(=O)N2CCN(c3ccc(F)c(F)c3)CC2)(c2cccnc2)N1 (stereo not shown) [compound 90, 5-[3-[4-(3,4-difluorophenyl)piperazin-1-yl]-3-oxo-propyl]-5-(3-pyridyl)imidazolidine-2,4-dione]
Human TACE
  IC50: > 4 µM
Human MMP13
  IC50: 1.21 µM
rnADAMTS-5 (1-564-6H)
  IC50: 0.07 µM
Human ADAMTS-5 [1]
  IC50: 0.085 µM

## O=C1NC(=O)C(CCC(=O)N2CCN(c3ccc(F)c(Cl)c3)CC2)(c2cccnc2)N1 (stereo not shown) [compound 91, 5-[3-[4-(3-chloro-4-fluoro-phenyl)piperazin-1-yl]-3-oxo-propyl]-5-(3-pyridyl)imidazolidine-2,4-dione]
Human TACE
  IC50: > 4 µM
Human MMP13
  IC50: 1.68 µM
rnADAMTS-5 (1-564-6H)
  IC50: 0.069 µM
Human ADAMTS-5 [1]
  IC50: 0.095 µM

## Cc1ccc(F)cc1N1CCN(C(=O)CCC2(c3cccnc3)NC(=O)NC2=O)CC1 (stereo not shown) [compound 92, 5-[3-[4-(5-fluoro-2-methyl-phenyl)piperazin-1-yl]-3-oxo-propyl]-5-(3-pyridyl)imidazolidine-2,4-dione]
Human TACE
  IC50: 1.05 µM
Human MMP13
  IC50: > 20 µM
rnADAMTS-5 (1-564-6H)
  IC50: 0.064 µM
Human ADAMTS-5 [1]
  IC50: 0.063 µM

## Cc1cc(Cl)c(F)cc1N1CCN(C(=O)CCC2(C)NC(=O)NC2=O)CC1 (stereo not shown) [compound 93, 5-[3-[4-(4-chloro-5-fluoro-2-methyl-phenyl)piperazin-1-yl]-3-oxo-propyl]-5-methyl-imidazolidine-2,4-dione]
Human TACE
  IC50: > 3.53 µM
Human MMP13
  IC50: > 20 µM
rnADAMTS-5 (1-564-6H)
  IC50: > 4 µM
Human ADAMTS-5 [1]
  IC50: > 4.08 µM

## Cc1cc(F)c(F)cc1N1CCN(C(=O)CCC2(C)NC(=O)NC2=O)CC1 (stereo not shown) [compound 94, 5-[3-[4-(4,5-difluoro-2-methyl-phenyl)piperazin-1-yl]-3-oxo-propyl]-5-methyl-imidazolidine-2,4-dione]
Human TACE
  IC50: > 4 µM
Human MMP13
  IC50: > 20 µM
rnADAMTS-5 (1-564-6H)
  IC50: 3.02 µM
Human ADAMTS-5 [1]
  IC50: 2.13 µM

## O=C1NC(=O)C(CCC(=O)N2CCN(c3ccc(F)c(F)c3)CC2)(c2ccccn2)N1 (stereo not shown) [compound 95, 5-[3-[4-(3,4-difluorophenyl)piperazin-1-yl]-3-oxo-propyl]-5-(2-pyridyl)imidazolidine-2,4-dione]
Human TACE
  IC50: > 4 µM
Human MMP13
  IC50: 2.2 µM
rnADAMTS-5 (1-564-6H)
  IC50: 0.04 µM
Human ADAMTS-5 [1]
  IC50: 0.048 µM

## O=C1NC(=O)C(CCC(=O)N2CCN(c3ccc(F)c(Cl)c3)CC2)(c2ccccn2)N1 (stereo not shown) [compound 96, 5-[3-[4-(3-chloro-4-fluoro-phenyl)piperazin-1-yl]-3-oxo-propyl]-5-(2-pyridyl)imidazolidine-2,4-dione]
Human TACE
  IC50: 3.59 µM
Human MMP13
  IC50: 1.06 µM
rnADAMTS-5 (1-564-6H)
  IC50: 0.057 µM
Human ADAMTS-5 [1]
  IC50: 0.049 µM

## Cc1c(F)cccc1N1CCN(C(=O)CCC2(c3cccnc3)NC(=O)NC2=O)CC1 (stereo not shown) [compound 97, 5-[3-[4-(3-fluoro-2-methyl-phenyl)piperazin-1-yl]-3-oxo-propyl]-5-(3-pyridyl)imidazolidine-2,4-dione]
Human TACE
  IC50: > 4 µM
Human MMP13
  IC50: > 20 µM
rnADAMTS-5 (1-564-6H)
  IC50: 0.148 µM
Human ADAMTS-5 [1]
  IC50: 0.168 µM

## Cc1c(F)cccc1N1CCN(C(=O)CCC2(c3ccccn3)NC(=O)NC2=O)CC1 (stereo not shown) [compound 100, 5-[3-[4-(3-fluoro-2-methyl-phenyl)piperazin-1-yl]-3-oxo-propyl]-5-(2-pyridyl)imidazolidine-2,4-dione]
Human TACE
  IC50: > 4 µM
Human MMP13
  IC50: > 20 µM
rnADAMTS-5 (1-564-6H)
  IC50: 0.163 µM
Human ADAMTS-5 [1]
  IC50: 0.185 µM

## O=C1NC(=O)C(CCC(=O)N2CCN(c3cccc(F)c3)CC2)(c2ccccn2)N1 (stereo not shown) [compound 103, 5-[3-[4-(3-fluorophenyl)piperazin-1-yl]-3-oxo-propyl]-5-(2-pyridyl)imidazolidine-2,4-dione]
Human TACE
  IC50: 4.1 µM
Human MMP13
  IC50: 2 µM
rnADAMTS-5 (1-564-6H)
  IC50: 0.024 µM
Human ADAMTS-5 [1]
  IC50: 0.028 µM

## Cc1ccc(F)cc1N1CCN(C(=O)CCC2(c3ccccn3)NC(=O)NC2=O)CC1 (stereo not shown) [compound 104, 5-[3-[4-(5-fluoro-2-methyl-phenyl)piperazin-1-yl]-3-oxo-propyl]-5-(2-pyridyl)imidazolidine-2,4-dione]
Human TACE
  IC50: 0.461 µM
Human MMP13
  IC50: > 20 µM
rnADAMTS-5 (1-564-6H)
  IC50: 0.041 µM
Human ADAMTS-5 [1]
  IC50: 0.043 µM

## CC1CN(C(=O)CCC2(c3cccnc3)NC(=O)NC2=O)CCN1c1ccccc1 (stereo not shown) [compound 105, 5-[3-(3-methyl-4-phenyl-piperazin-1-yl)-3-oxo-propyl]-5-(3-pyridyl)imidazolidine-2,4-dione]
Human TACE
  IC50: > 20 µM
Human MMP13
  IC50: > 20 µM
rnADAMTS-5 (1-564-6H)
  IC50: 0.162 µM
Human ADAMTS-5 [1]
  IC50: 0.226 µM

## CC1CN(C(=O)CCC2(C3CC3)NC(=O)NC2=O)CCN1c1ccccc1 (stereo not shown) [compound 106, 5-cyclopropyl-5-[3-(3-methyl-4-phenyl-piperazin-1-yl)-3-oxo-propyl]imidazolidine-2,4-dione]
Human TACE
  IC50: > 20 µM
Human MMP13
  IC50: > 20 µM
rnADAMTS-5 (1-564-6H)
  IC50: 0.222 µM
Human ADAMTS-5 [1]
  IC50: 0.233 µM

## CC(C)(C)C1(CCC(=O)N2CCN(c3cccc(Cl)c3)CC2)NC(=O)NC1=O (stereo not shown) [compound 107, 5-tert-butyl-5-[3-[4-(3-chlorophenyl)piperazin-1-yl]-3-oxo-propyl]imidazolidine-2,4-dione]
Human TACE
  IC50: > 4 µM
Human MMP13
  IC50: > 20 µM
rnADAMTS-5 (1-564-6H)
  IC50: 0.147 µM
Human ADAMTS-5 [1]
  IC50: 0.172 µM

## O=C1NC(=O)C(CCC(=O)N2CCN(c3cccc(Cl)c3)CC2)(C2CCCC2)N1 (stereo not shown) [compound 109, 5-[3-[4-(3-chlorophenyl)piperazin-1-yl]-3-oxo-propyl]-5-cyclopentyl-imidazolidine-2,4-dione]
Human TACE
  IC50: 5.26 µM
Human MMP13
  IC50: > 4 µM
rnADAMTS-5 (1-564-6H)
  IC50: 0.182 µM
Human ADAMTS-5 [1]
  IC50: 0.261 µM

## O=C1NC(=O)C(CCC(=O)N2CCN(c3cc(Cl)cc(Cl)c3)CC2)(c2cccnc2)N1 (stereo not shown) [compound 111, 5-[3-[4-(3,5-dichlorophenyl)piperazin-1-yl]-3-oxo-propyl]-5-(3-pyridyl)imidazolidine-2,4-dione]
Human TACE
  IC50: 0.963 µM
Human MMP13
  IC50: > 20 µM
rnADAMTS-5 (1-564-6H)
  IC50: 0.046 µM
Human ADAMTS-5 [1]
  IC50: 0.042 µM

## O=C1NC(=O)C(CCC(=O)N2CCN(c3ccc(F)c(F)c3)CC2)(C2CC2)N1 (stereo not shown) [compound 113, 5-cyclopropyl-5-[3-[4-(3,4-difluorophenyl)piperazin-1-yl]-3-oxo-propyl]imidazolidine-2,4-dione]
Human TACE
  IC50: > 20 µM
Human MMP13
  IC50: 3.62 µM
rnADAMTS-5 (1-564-6H)
  IC50: 0.091 µM
Human ADAMTS-5 [1]
  IC50: 0.104 µM

## O=C1NC(=O)C(CCC(=O)N2CCN(c3ccc(F)c(Cl)c3)CC2)(C2CC2)N1 (stereo not shown) [compound 114, 5-[3-[4-(3-chloro-4-fluoro-phenyl)piperazin-1-yl]-3-oxo-propyl]-5-cyclopropyl-imidazolidine-2,4-dione]
Human TACE
  IC50: > 20 µM
Human MMP13
  IC50: 2.58 µM
rnADAMTS-5 (1-564-6H)
  IC50: 0.062 µM
Human ADAMTS-5 [1]
  IC50: 0.067 µM

## CC(CC1(C2CC2)NC(=O)NC1=O)C(=O)N1CCN(c2cccc(Cl)c2)CC1 (stereo not shown) [compound 121, 5-[3-[4-(3-chlorophenyl)piperazin-1-yl]-2-methyl-3-oxo-propyl]-5-cyclopropyl-imidazolidine-2,4-dione]
Human ADAMTS-5 [2]
  IC50: 0.015 µM
Human TACE
  IC50: 1.1 µM
Human MMP13
  IC50: 0.0706 µM
rnADAMTS-5 (1-564-6H)
  IC50: 0.024 µM
Human ADAMTS-5 [1]
  IC50: 0.015 µM

## C[C@H]1CN(C(=O)CCC2(c3ccccc3)NC(=O)NC2=O)CCN1c1ccccc1 (stereo partly drawn) [compound 137, 5-[3-[(3S)-3-methyl-4-phenyl-piperazin-1-yl]-3-oxo-propyl]-5-phenyl-imidazolidine-2,4-dione]
Human TACE
  IC50: > 20 µM
Human MMP13
  IC50: > 20 µM
rnADAMTS-5 (1-564-6H)
  IC50: 0.249 µM
Human ADAMTS-5 [1]
  IC50: 0.24 µM

## O=C1NC(=O)C(CCC(=O)N2CCN(c3ccccc3)CC2)(C2CC2)N1 (stereo not shown) [compound 138, 5-cyclopropyl-5-[3-oxo-3-(4-phenylpiperazin-1-yl)propyl]imidazolidine-2,4-dione]
Human TACE
  IC50: > 20 µM
Human MMP13
  IC50: > 4 µM
rnADAMTS-5 (1-564-6H)
  IC50: 0.107 µM
Human ADAMTS-5 [1]
  IC50: 0.101 µM
